Assay: Electrophysiological Assay: Current record was obtained by an automated patch clamp system “IonWorks Quattro (Molecular Devices Corporation)” in Population Patch Clamp mode. The operation was conducted in accordance with the operating procedure of the system. A Dulbecco's phosphate buffer containing calcium and magnesium (Sigma) was used as an extracellular fluid, and a low C1-buffer (100 mM K-gluconate, 40 mM KCl, 3.2 mM MgCl2, 5 mM EGTA, 5 mM Hepes, pH 7.3) was used as an intracellular fluid. A test compound was dissolved in dimethylsulfoxide (DMSO) to prepare a 30 mM stock solution, so as to produce 4-fold serial dilutions with the extracellular fluid for attaining a DMSO concentration of 0.3% in measurement.The hNav 1.7/β1/β2 cells cultured to a 70-80% confluent state in a T150 flask (Sumilon) were washed with PBS and subsequently with versene (Invitrogen Corp.), and collected by allowing to react with 0.05% trypsin (Invitrogen Corp.) at 37° C. for 3 minutes. After washing with a culture medium, the resultant cells were suspended in an extracellular fluid at a concentration of […] so as to be used for the measurement. The cell membrane was perforated by using an intracellular fluid including 100 μg/ml amphotericin B (Sigma).
Format: cell-based

Question: Which IC50 does the source give for `Cn1nccc1[C@H]1CCC[C@@H]1Oc1cc(F)c(S(=O)(=O)Nc2nncs2)cc1Cl` (relative stereo) here?
Answer: 280 nM
